Laboratory results: publication PMC8468039, “Development of New Meridianin/Leucettine-Derived Hybrid Small Molecules as Nanomolar Multi-Kinase Inhibitors with Antitumor Activity” (Biomedicines, 2021)

Experiments:
LYN = target: T1, LYN (Homo sapiens, UniProt P07948); assay: In vitro kinase inhibition assay (HotSpot, Reaction Biology); format: biochemical; conditions: single dose of 10 µM; 10 µM ATP as printed; read-out: Percent Inhibition, LYN
T1 construct: purchased Reaction Biology Corp
Method: (§1) The in vitro kinase inhibition assay was carried out by Reaction Biology Corp. (Reaction Biology Corp., Chester, PA, USA) Kinase HotSpot^SM service (http://www.reactionbiology.com, accessed on 15 January 2021), following the previously reported methods. (For details, see Supplementary Material).
(§2) As mentioned in the introduction, to get insights about the kinase inhibition profile of the hybrid small molecule 5a, an in vitro screening over a panel of 14 cancer-related kinases was carried out. Accordingly, 10 µM concentrations of compound 5a were used in a kinase inhibition assay over various kinase groups and families in the presence of 10 µM ATP using HotSpotSM technology. To get a comprehensive picture of the inhibitory activities of the tested compound (5a) against the kinase panel, data are illustrated in Table 1. […] Compound 5a was also able to suppress the kinase activity of the epidermal growth factor receptor (EGFR), platelet-derived growth factor receptor-alpha (PDGFRα), and cyclin-dependent kinase 2 (CDK2) with modest inhibition values of 26.99 ± 0.9, 24.0 ± 0.4, and 20.1 ± 0.1%, respectively. […] Several studies have confirmed direct relationships between the most affected kinases (FMS, LCK, LYN, and DAPK1) and different human disorders including cancer.
(§3) 5. Protocol of Kinase assay
(§4) Kinases inhibitory activities were assessed by the HotSpot assay platform, which contained specific kinase/substrate pairs along with required cofactors. Base reaction buffer: 20 mM Hepes (pH 7.5), 10 mM MgCl2, 1 mM EGTA, 0.02% Brij35, 0.02 mg/ml BSA, 0.1 mM Na3VO4, 2 mM DTT, 1% DMSO. Testing compounds were dissolved in 100% DMSO to specific concentration. The serial dilution was conducted by Integra Viaflo Assist in DMSO. The reaction mixture containing the examined compound and 33P-ATP was incubated at room temperature for 2h and radioactivity was detected by filter-binding method. Kinase activity data were expressed as the percent remaining kinase activity in test samples compared to vehicle (dimethyl sulfoxide) reactions. IC50 values and curve fits were obtained using Prism (GraphPad Software).
(§5) 6. Biology raw data for IC50 determination
(§6) Paper ID Cpd ID NSC Number

DAPK1 = target: T2, DAPK1 (Homo sapiens, UniProt P53355); assay: as above; format: biochemical; conditions: single dose of 10 µM; read-out: Percent Inhibition, DAPK1
T2 construct: purchased Reaction Biology Corp
T2 sequence (P53355 whole entry): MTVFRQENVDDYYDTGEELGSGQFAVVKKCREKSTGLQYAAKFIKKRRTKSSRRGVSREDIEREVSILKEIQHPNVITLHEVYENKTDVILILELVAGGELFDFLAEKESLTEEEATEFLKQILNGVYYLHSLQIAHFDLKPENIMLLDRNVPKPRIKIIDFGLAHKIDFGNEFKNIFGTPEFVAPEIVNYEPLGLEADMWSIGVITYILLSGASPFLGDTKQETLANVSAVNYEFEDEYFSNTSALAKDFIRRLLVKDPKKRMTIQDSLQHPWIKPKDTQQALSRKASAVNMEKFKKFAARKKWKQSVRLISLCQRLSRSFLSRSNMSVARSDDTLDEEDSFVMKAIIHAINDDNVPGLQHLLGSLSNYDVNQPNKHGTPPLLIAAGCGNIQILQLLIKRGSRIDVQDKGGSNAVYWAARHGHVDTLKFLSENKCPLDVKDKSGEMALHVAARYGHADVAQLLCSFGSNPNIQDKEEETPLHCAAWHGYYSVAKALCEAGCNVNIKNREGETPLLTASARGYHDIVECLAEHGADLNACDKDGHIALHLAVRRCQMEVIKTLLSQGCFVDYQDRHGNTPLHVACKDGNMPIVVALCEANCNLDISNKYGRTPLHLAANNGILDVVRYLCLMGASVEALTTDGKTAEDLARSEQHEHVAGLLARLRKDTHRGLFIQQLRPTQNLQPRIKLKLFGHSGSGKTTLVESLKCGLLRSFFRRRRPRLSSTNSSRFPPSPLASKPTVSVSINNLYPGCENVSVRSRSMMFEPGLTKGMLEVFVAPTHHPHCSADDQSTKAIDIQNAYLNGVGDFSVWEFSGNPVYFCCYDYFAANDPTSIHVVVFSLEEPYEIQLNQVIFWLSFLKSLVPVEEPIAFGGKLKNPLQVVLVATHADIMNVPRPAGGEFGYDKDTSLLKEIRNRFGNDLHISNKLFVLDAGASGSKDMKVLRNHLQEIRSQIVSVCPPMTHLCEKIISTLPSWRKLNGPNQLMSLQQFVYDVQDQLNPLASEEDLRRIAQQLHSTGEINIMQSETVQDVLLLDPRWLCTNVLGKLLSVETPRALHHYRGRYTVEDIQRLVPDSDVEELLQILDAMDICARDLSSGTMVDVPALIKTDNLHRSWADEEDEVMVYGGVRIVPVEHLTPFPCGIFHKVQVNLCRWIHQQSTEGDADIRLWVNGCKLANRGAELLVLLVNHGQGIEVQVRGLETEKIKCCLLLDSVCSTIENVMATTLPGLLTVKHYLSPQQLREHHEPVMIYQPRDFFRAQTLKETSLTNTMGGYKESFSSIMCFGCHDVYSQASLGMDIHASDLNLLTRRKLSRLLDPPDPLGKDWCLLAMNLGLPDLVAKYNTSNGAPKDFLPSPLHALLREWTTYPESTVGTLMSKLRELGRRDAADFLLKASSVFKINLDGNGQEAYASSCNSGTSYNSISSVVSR
Method: as §1, §2, §3, §4, §5, §6

LCK = target: T3, LCK (Homo sapiens, UniProt P06239); assay: as above; format: biochemical; conditions: single dose of 10 µM; 10 µM ATP as printed; read-out: Percent Inhibition, LCK
T3 construct: purchased Reaction Biology Corp
T3 sequence (P06239 whole entry): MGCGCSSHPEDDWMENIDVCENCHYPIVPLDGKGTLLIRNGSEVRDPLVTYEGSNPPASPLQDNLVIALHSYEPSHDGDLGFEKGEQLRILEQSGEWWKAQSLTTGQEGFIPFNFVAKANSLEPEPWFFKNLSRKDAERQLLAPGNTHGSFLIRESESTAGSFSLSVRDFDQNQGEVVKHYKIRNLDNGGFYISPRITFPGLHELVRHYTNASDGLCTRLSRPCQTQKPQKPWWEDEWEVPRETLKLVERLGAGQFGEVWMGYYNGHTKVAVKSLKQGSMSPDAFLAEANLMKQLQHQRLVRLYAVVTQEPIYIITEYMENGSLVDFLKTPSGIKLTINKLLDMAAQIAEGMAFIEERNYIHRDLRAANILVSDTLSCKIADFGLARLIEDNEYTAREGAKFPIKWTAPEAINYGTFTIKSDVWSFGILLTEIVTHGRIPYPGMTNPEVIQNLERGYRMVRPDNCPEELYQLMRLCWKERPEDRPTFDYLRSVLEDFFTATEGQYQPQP
Method: as §1, §2, §3, §4, §5, §6

RPMI-8226 = assay: NCI growth inhibition (SRB) assay; format: cell-based; conditions: Homo sapiens, RPMI-8226, Leukemia, single dose 10 µM, 48 h, read-out: Percent Growth Inhibition (GI)
Method: (§7) The antitumor assay was performed according to the protocol of the Drug Evaluation Branch, NCI, Bethesda. A 48 h drug exposure protocol was adopted, and sulforhodamine B (SRB) assay was utilized to assess the cell growth and viability, as reported earlier.
(§8) The inhibition results of tumor cell growth by the newly synthesized compounds (5a–5g) are described in Table 4. The reported measurements have been performed at the NIH National Cancer Institute, USA by a standardized assay including a panel of 60 different tumor cell lines (Supplementary Data). The following cancer cell types were included in these assays: Leukemia, non-small cell lung cancer, colon cancer, CNS cancer, melanoma, ovarian cancer, renal cancer, prostate, and breast cancer. […] Additionally, the 3,4-dimethoxy substituted compound (5b) also suffered poor activity against the cancer cell lines.

NCI-H522 = assay: NCI growth inhibition (SRB) assay; format: cell-based; conditions: Homo sapiens, NCI-H522, Non-Small Cell Lung Cancer, single dose 10 µM, 48 h, read-out: Percent Growth Inhibition (GI)
Method: as §7, §8

CCRF-CEM = assay: NCI growth inhibition (SRB) assay; format: cell-based; conditions: Homo sapiens, Leukemia, single dose 10 µM, 48 h, read-out: Percent Growth Inhibition (GI)
Method: as §7, §8

HT29 = assay: NCI growth inhibition (SRB) assay; format: cell-based; conditions: Homo sapiens, HT-29, HT29, Colon Cancer, single dose 10 µM, 48 h, read-out: Percent Growth Inhibition (GI)
Method: as §7, §8

HCT-15 = assay: NCI growth inhibition (SRB) assay; format: cell-based; conditions: Homo sapiens, HCT-15, Colon Cancer, single dose 10 µM, 48 h, read-out: Percent Growth Inhibition (GI)
Method: as §7, §8

PC-3 = assay: NCI growth inhibition (SRB) assay; format: cell-based; conditions: Homo sapiens, PC-3, Prostate Cancer, single dose 10 µM, 48 h, read-out: Percent Growth Inhibition (GI)
Method: as §7, §8

RXF 393 = assay: NCI growth inhibition (SRB) assay; format: cell-based; conditions: Homo sapiens, RXF 393, Renal Cancer, single dose 10 µM, 48 h, read-out: Percent Growth Inhibition (GI)
Method: as §7, §8

UACC-62 = assay: NCI growth inhibition (SRB) assay; format: cell-based; conditions: Homo sapiens, UACC-62, Melanoma, single dose 10 µM, 48 h, read-out: Percent Growth Inhibition (GI)
Method: as §7, §8

CAKI-1 = assay: NCI growth inhibition (SRB) assay; format: cell-based; conditions: Homo sapiens, CAKI-1, Renal Cancer, single dose 10 µM, 48 h, read-out: Percent Growth Inhibition (GI)
Method: as §7, §8

UO-31 = assay: NCI growth inhibition (SRB) assay; format: cell-based; conditions: Homo sapiens, UO-31, Renal Cancer, single dose 10 µM, 48 h, read-out: Percent Growth Inhibition (GI)
Method: as §7, §8

SF-539 = assay: NCI growth inhibition (SRB) assay; format: cell-based; conditions: Homo sapiens, SF-539, CNS Cancer, single dose 10 µM, 48 h, read-out: Percent Growth Inhibition (GI)
Method: as §7, §8

COLO 205 = assay: NCI growth inhibition (SRB) assay; format: cell-based; conditions: Homo sapiens, COLO 205, Colon Cancer, single dose 10 µM, 48 h, read-out: Percent Growth Inhibition (GI)
Method: as §7, §8

A498 = assay: NCI growth inhibition (SRB) assay; format: cell-based; conditions: Homo sapiens, A498, Renal Cancer, single dose 10 µM, 48 h, read-out: Percent Growth Inhibition (GI)
Method: as §7, §8

MCF7 = assay: NCI growth inhibition (SRB) assay; format: cell-based; conditions: Homo sapiens, MCF7, Breast Cancer, single dose 10 µM, 48 h, read-out: Percent Growth Inhibition (GI)
Method: as §7, §8

SNB-75 = assay: NCI growth inhibition (SRB) assay; format: cell-based; conditions: Homo sapiens, SNB-75, CNS Cancer, single dose 10 µM, 48 h, read-out: Percent Growth Inhibition (GI)
Method: as §7, §8

HOP-92 = assay: NCI growth inhibition (SRB) assay; format: cell-based; conditions: Homo sapiens, HOP-92, Non-Small Cell Lung Cancer, single dose 10 µM, 48 h, read-out: Percent Growth Inhibition (GI)
Method: as §7, §8

T1 sequence (P07948 whole entry): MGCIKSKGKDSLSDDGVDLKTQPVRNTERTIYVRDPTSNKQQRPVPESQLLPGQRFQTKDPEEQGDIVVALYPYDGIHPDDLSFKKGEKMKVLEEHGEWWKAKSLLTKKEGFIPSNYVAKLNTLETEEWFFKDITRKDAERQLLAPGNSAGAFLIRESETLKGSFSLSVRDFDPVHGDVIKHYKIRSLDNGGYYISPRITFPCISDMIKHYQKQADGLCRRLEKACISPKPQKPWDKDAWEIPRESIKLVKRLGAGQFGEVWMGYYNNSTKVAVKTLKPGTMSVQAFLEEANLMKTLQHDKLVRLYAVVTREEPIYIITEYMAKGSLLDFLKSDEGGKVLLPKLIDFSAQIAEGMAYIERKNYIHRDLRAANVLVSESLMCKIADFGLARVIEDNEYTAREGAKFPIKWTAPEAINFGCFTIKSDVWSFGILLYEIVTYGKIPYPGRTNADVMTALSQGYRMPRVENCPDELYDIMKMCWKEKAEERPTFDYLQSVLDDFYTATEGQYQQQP

Compound	inhibition at 10 µM (LYN)	inhibition at 10 µM (DAPK1)	inhibition at 10 µM (LCK)	inhibition at 10 µM (RPMI-8226)	inhibition at 10 µM (NCI-H522)	inhibition at 10 µM (CCRF-CEM)	inhibition at 10 µM (HT29)	inhibition at 10 µM (HCT-15)	inhibition at 10 µM (PC-3)	inhibition at 10 µM (RXF 393)	inhibition at 10 µM (UACC-62)	inhibition at 10 µM (CAKI-1)	inhibition at 10 µM (UO-31)	inhibition at 10 µM (SF-539)	inhibition at 10 µM (COLO 205)	inhibition at 10 µM (A498)	inhibition at 10 µM (MCF7)	inhibition at 10 µM (SNB-75)	inhibition at 10 µM (HOP-92)
CCOc1cc(OCC)cc(C(=O)Nc2cnc(Nc3ccc(N4CCOCC4)cc3)nc2Oc2ccc(OC)cc2)c1 [5d, 3,5-Diethoxy-N-(4-(4-methoxyphenoxy)-2-((4-morpholinophenyl)amino)pyrimidin-5-yl)benzamide]	31.5 ± 5.8%	51.6 ± 0.5%	38.3 ± 4.2%	25.6%	29.8%	26.1%	9.54%	13.2%	27.3%	27.5%	12%	20.6%	29.9%	8.01%	-2.11%	17.9%	14.4%	19.2%	3.34%
COc1ccc(Oc2nc(Nc3ccc(N4CCOCC4)cc3)ncc2NC(=O)Cc2cc(OC)cc(OC)c2)cc1 [5e, 2-(3,5-Dimethoxyphenyl)-N-(4-(4-methoxyphenoxy)-2-((4-morpholinophenyl)amino)pyrimidin-5-yl)acetamide]	7.9 ± 0.4%	47.1 ± 0.7%	39.5 ± 0.4%	11.3%	8.4%	-4.73%	-8.47%	1.13%	8.05%	-8.16%	1.34%	-2.58%	19.4%	2.09%	-22.4%	-6.85%	18.9%	-3.1%	4.46%
COc1ccc(Oc2nc(Nc3ccc(N4CCOCC4)cc3)ncc2NC(=O)c2ccnc([N+](=O)[O-])c2)cc1 [5f, N-(4-(4-Methoxyphenoxy)-2-((4-morpholinophenyl)amino)pyrimidin-5-yl)-2-nitroisonicotinamide]	34.1 ± 2.2%	65.5 ± 1.4%	72.6 ± 0.6%	16.3%	9.77%	16.7%	-8.86%	32.8%	13.8%	-0.36%	21.4%	13.7%	29%	7.72%	-14.6%	6.39%	12.5%	-4.97%	1.12%
